Laboratory results from patent publication US7709514B2, “Therapeutic molecules and methods-1” (Cortical Pty Ltd, priority 2002, dated 2010).

How the values were obtained:
[1] = test system: murine peritoneal macrophage nitric oxide production; assay: inhibition of peritoneal macrophage nitric oxide release (Greiss assay); assay type: cell-based, mice; conditions: Mus musculus, LPS 10 ng/ml and interferon-γ 10 units/ml, 24 hours, read-out: % Nitrite concentration inhibition from control
Method: C57BL6/J male mice were injected intraperitoneally with 2 ml of thioglycollate. Five (5) days later peritoneal macrophages were collected by lavaging the peritoneum of anaesthetized mice with 3 ml of cold Hanks buffered saline solution. Cells from several mice were pooled, washed and re-suspended in DMEM supplemented with 5% FCS. Cells were plated in 96 well plastic tissue culture plates at 1×10^5 cells/well. Cells were treated with compound or vehicle for 1 hour in a 5% CO2 incubator at 37° C. Cells were then treated with LPS (10 ng/ml) and recombinant human interferon-γ (10 units/ml) and incubated for 24 hours. After 24 hours, 50 μl of supernatant from each well was carefully removed and transferred to ELISA plates. The concentration of nitrite in culture supernatants was measured by the Greiss assay (27). The results were defined as the percentage inhibition of nitrite concentration in compound-treated cell culture supernatants compared to that of vehicle-treated cells.

[2] = test system: IL-1-induced COX-2 expression; assay: IL-1-induced COX-2 expression in S112 human dermal fibroblasts (MIF-dependent bioassay); assay type: cell-based
Method: The activity of compounds was studied in a bioassay utilising MIF-dependent activation of human dermal fibroblasts. […] IL-1-induced COX-2 expression is therefore a MIF-dependent event. […] Prior to experimentation, cells were seeded at 10^5 cells/ml in RPMI/0.1% BSA for 18 hours. […] After 6 hours, cells were collected and intracellular COX-2 protein determined by permeabilisation flow cytometry. […] Cellular fluorescence was determined using a flow cytometer. At least 5000 events were counted for each reading, each of which was performed in duplicate, and the results expressed in mean fluorescence intensity (MFI) after subtraction of negative control-labelled cell fluorescence. The effect of each compound was determined by subtracting the IL-1+compound-treated cell MFI from the IL-1-treated cell (control) MFI and expressed as % inhibition. In each case the % inhibition of IL-1-induced COX-2 expression is expressed as the mean, or mean±SEM where results are available from multiple experiments.

[3] = test system: murine endotoxic shock model; assay: murine endotoxic shock model (LPS), cytokines by ELISA; assay type: in vivo, mice
Method: The activity of compound 5 was studied in the murine endotoxic shock model. This model has been previously shown to be dependent on MIF (21). Administration of a substance which inhibits the cytokine or biological activity of MIF would be expected to result in a reduction in serum levels of cytokines such as IL-1 or IL-6. Endotoxaemia was induced by intra-peritoneal injection of lipopolysaccharide (LPS) (15 mg/kg) in 400 μl saline. Mice were treated with a saline solution (control) only, a saline solution and LPS, or LPS and compound 5 at a dose of 15 mg/kg body weight, administered by intra-peritoneal injection at 24 hours, 12 hours and 1 hour before intra-peritoneal LPS injection. After 1.5 hours mice were humanely killed by CO2 inhalation then neck dislocation. Serum was obtained from blood obtained by cardiac puncture prior to death and measured for cytokines including interleukin 1 (IL-1) and interleukin 6 (IL-6) by ELISA. The production of IL-1 and IL-6 has been previously shown to be dependent on MIF (22). Macrophages were obtained by lavage of the peritoneal cavity using normal saline and placed into 24 well tissue culture plates for 18 hours in RPMI/10% FCS. The cultured peritoneal macrophage supernatants were then analysed for cytokines including IL-6. The peritoneal lavage supernatants were also analysed for cytokines including IL-6.
The effect of compound 5 was tested under a variety of conditions in animals exposed to endotoxic shock induced as above by the injection of 15 mg/kg LPS by intraperitoneal injection. In each case compounds were administered by intraperitoneal injection at a dose of 15 mg/kg. Compound 5 administration was associated with reductions in serum IL-1, IL-6, and TNF concentration whether administered by intraperitoneal injection (IP) or by oral gavage, and under a variety of administration regimens.

CCCCCOC(=O)c1ccc2[nH]c(=O)[nH]c2c1 [Compound 5]
inhibition at 25 µM ([1]; compound 25 μM): 11.1% | inhibition at 50 µM ([1]; compound 50 μM): 19.7% | inhibition at 100 µM ([1]; compound 100 μM): 28.6% | inhibition at 1 µM ([2]; Homo sapiens, Fibroblast, compound 1 μM, S112 cells, IL-1 0.1 ng/ml, 6 hours): 7.7% | inhibition at 10 µM ([2]; Homo sapiens, Fibroblast, compound 10 μM, S112 cells, IL-1 0.1 ng/ml, 6 hours): 21.4% | inhibition at 25 µM ([2]; Homo sapiens, Fibroblast, compound 25 μM, S112 cells, IL-1 0.1 ng/ml, 6 hours): 34% | inhibition at 50 µM ([2]; Homo sapiens, Fibroblast, compound 50 μM, S112 cells, IL-1 0.1 ng/ml, 6 hours, read-out: % inhibition of IL-1-induced COX-2 expression): 48.4% | inhibition at 100 µM ([2]; Homo sapiens, Fibroblast, compound 100 μM, S112 cells, IL-1 0.1 ng/ml, 6 hours): 52.2% | % Inhibition of IL-1 induced COX-2 expression ([2]; Table 2 experiment, Compound 5 50 μM alone): 45.1% | serum IL-1 concentration ([3]; FIG. 5, LPS alone vs LPS with compound 5): marked reduction | Serum IL-1 at 1.5 h, LPS + cpd ([3]; IP injection 15 mg/kg at −24, −6, −1 h, LPS alone 42.49): 39.82 | Serum IL-1 at 6 h, LPS + cpd ([3]; IP injection 15 mg/kg at −24, −6, −1 h, LPS alone 786.6): 170.2 | Serum IL-1 at 1.5 h, LPS + cpd ([3]; IP injection 15 mg/kg at −24, −12, −1 h, LPS alone 484.8): 283.8 | Serum IL-6 at 1.5 h, LPS + cpd ([3]; IP injection 15 mg/kg at −24, −12, −1 h, LPS alone 92790): 75260 | Serum IL-6 at 6 h, LPS + cpd ([3]; IP injection 15 mg/kg at −1 h, LPS alone 215100): 150300 | Serum IL-1 at 1.5 h, LPS + cpd ([3]; IP injection 15 mg/kg at −18 h, LPS alone 301.5): 105.9 | Serum TNF at 1.5 h, LPS + cpd ([3]; IP injection 15 mg/kg at −18 h, LPS alone 4263): 2422 | Serum IL-6 ([3]; LPS 15 mg/kg IP, compound 15 mg/kg IP at 24, 12 and 1 hour before LPS, 1.5 hours after LPS, LPS only 261.05): 99.78 ng/mL | Peritoneal lavage IL-6 ([3]; LPS 15 mg/kg IP, compound 15 mg/kg IP at 24, 12 and 1 hour before LPS, LPS only 16.11): 7.07 ng/mL | Cultured peritoneal macrophage IL-6 ([3]; LPS 15 mg/kg IP, compound 15 mg/kg IP at 24, 12 and 1 hour before LPS, macrophages cultured 18 hours, LPS only 3.40): 1.33 ng/mL | serum IL-1, IL-6, and TNF concentration ([3]; LPS 15 mg/kg, IP or oral gavage, variety of administration regimens): reductions | Serum IL-1 at 1.5 h, LPS + cpd ([3]; Oral gavage 5 mg/kg at −24 h, −1 h, LPS alone 237.0): 182.5 | Serum IL-1 at 1.5 h, LPS + cpd ([3]; Oral gavage 15 mg/kg at −24, −6, −1 h, LPS alone 103.7): 47.1 | Serum IL-1 at 1.5 h, LPS + cpd ([3]; Oral gavage 15 mg/kg at −24 h, LPS alone 292.0): 152.6 | Serum IL-6 at 1.5 h, LPS + cpd ([3]; Oral gavage 15 mg/kg at −24 h, LPS alone 121100): 80250
